Measurements taken from patent publication US8119602B2, “Administration of HCV protease inhibitors in combination with food to improve bioavailability” (Schering Corporation, priority 2005, dated 2012).
Read-outs that look alike come from different tables or passages of the source. One block for each molecule: values may come before it.

What was measured:
[1] = Serum levels after two weeks of 400 mg bid or tid dosing; type: in vivo, healthy subjects; settings: 400 mg tid for two weeks; day 14
Procedure: Healthy subjects were dosed with two regimens of 400 mg. of a compound of Formula 1a, twice per day (bid) or three times per day (tid) for a period of two weeks. Blood samples were taken on day 14 in the morning at time zero (pre-dose) and at 12 hours post-dose (for the bid regimen) or 8 hours post-dose (for the tid regimen). As shown in the box plots, with tid dosing a metabolism effect is observed. Serum levels of the drug are higher at time zero, 8 hours after the previous evening dose, as compared to serum levels of the drug when measured 8 hours following the morning dose.

[2] = Single dose, randomized fed vs. fasted study of the effect of food on bioavailability (pharmacokinetics); type: in vivo, healthy subjects; settings: for Relative bioavailability, AUC (tf) Ratio Estimate / Relative bioavailability, AUC(l) Ratio Estimate / Relative bioavailability, Cmax Ratio Estimate: fed vs fasted; for increase of Cmax relative to fasted state / increase of mean AUCs relative to fasted state: based on ratio estimates; for half-life: read-out: t½ (mean) (converted)
Procedure: A single dose, randomized, two-treatment (fed vs. fasted) study was conducted to assess the effect of food on bioavailability of a compound of the present invention (SCH 503034 or Compound Ia). A single oral dose of 600 mg. of compound of Formula Ia was administered to two groups of healthy subjects. Group A received the dose after an overnight 10-hour fast; Group B received the dose about twenty minutes after consuming a high fat breakfast of 850 calories having 53.8 g fat (57% of calories from fat) or low fat breakfast of 451 calories. Blood samples were collected immediately prior to dosing (time zero) and at times 0.5, 1, 1.5, 2, 2.5, 3, 4, 6, 8, 12, 24, 36, 48, and 72 hours post dose. Results of measurement of mean maximum concentration (Cmax) of compound of Formula Ia in serum in ng/ml are shown in Table 1 and FIG. 1 (graph of mean plasma concentration of the compound versus Time). Calculations of AUC(tf) (area under the curve at time final), AUC(I) (area under the curve extrapolated to infinity), t½ (time at which one-half of the compound has disappeared from the blood), Tmax (time at which maximum serum concentration is achieved), CL/F (clearance divided by bioavailability), and Vd/F (volume of distribution divided by bioavailability) are made according to standard formulas known to one skilled in the art of drug metabolism and pharmacokintics.

[3] = human, serum, po, 600 mg, single oral dose 600 mg, fasted, balanced data
[4] = human, serum, po, 600 mg, single oral dose 600 mg, fed (high fat diet), balanced data
[5] = human, serum, po, 600 mg, single oral dose 600 mg, fed (non fat diet), balanced data

serum levels at time zero (8 hours after the previous evening dose) compared to 8 hours following the morning dose [1]: higher
Compound: CC(C)(C)NC(=O)N[C@H](C(=O)N1C[C@H]2[C@@H]([C@H]1C(=O)NC(CC1CCC1)C(=O)C(N)=O)C2(C)C)C(C)(C)C (stereo partly drawn) [compound of Formula 1a, (1R,5S)-N-[3-Amino-1-(Cyclobutylmethyl)-2,3-Dioxopropyl]-3-[2(S)-[[[(1,1-Dimethylethyl)Amino]Carbonyl]Amino]-3,3-Dimethyl-1-Oxobutyl]-6,6-Dimethyl-3-Azabicyclo[3.1.0]Hexan-2(S)-Carboxamide]

Relative bioavailability, AUC (tf) Ratio Estimate ([2]; compare B/A, balanced data): 317% | Relative bioavailability, AUC(l) Ratio Estimate ([2]; compare B/A, balanced data): 276% | Relative bioavailability, Cmax Ratio Estimate ([2]; compare B/A, balanced data): 223% | Relative bioavailability, AUC (tf) Ratio Estimate ([2]; compare C/A, balanced data): 182% | Relative bioavailability, AUC(l) Ratio Estimate ([2]; compare C/A, balanced data): 167% | Relative bioavailability, Cmax Ratio Estimate ([2]; compare C/A, balanced data): 129% | absorption lag time ([2]; fed state with high fat diet, in 8 of the 12 subjects who completed all three periods): 0.5 h | absorption lag time ([2]; fed state with non fat diet, 7 subjects): 0.5 h | increase of Cmax relative to fasted state ([2]; high fat diet): 123% | increase of mean AUCs relative to fasted state ([2]; high fat diet): over 200% | Cmax [2, 3]: 502 ng/mL | Vd/F [2, 3]: 4580 L | AUC ([2]; human, serum, po, 600 mg, single oral dose 600 mg, fasted, balanced data, read-out: AUC(l) (mean)): 1630 ng·h/mL | AUC ([2]; human, serum, po, 600 mg, single oral dose 600 mg, fasted, balanced data, read-out: AUC(tf) (mean)): 1560 ng·h/mL | Tmax ([2]; human, serum, po, 600 mg, single oral dose 600 mg, fasted, balanced data, read-out: Tmax, median (range)): 1.5 h | half-life [2, 3]: 7.61 h | Cmax [2, 4]: 1150 ng/mL | Vd/F [2, 4]: 418 L | AUC ([2]; human, serum, po, 600 mg, single oral dose 600 mg, fed (high fat diet), balanced data, read-out: AUC(l) (mean)): 4440 ng·h/mL | AUC ([2]; human, serum, po, 600 mg, single oral dose 600 mg, fed (high fat diet), balanced data, read-out: AUC(tf) (mean)): 5090 ng·h/mL | half-life [2, 4]: 2.01 h | Cmax [2, 5]: 639 ng/mL | Vd/F [2, 5]: 1140 L | AUC ([2]; human, serum, po, 600 mg, single oral dose 600 mg, fed (non fat diet), balanced data, read-out: AUC(l) (mean)): 2750 ng·h/mL | AUC ([2]; human, serum, po, 600 mg, single oral dose 600 mg, fed (non fat diet), balanced data, read-out: AUC(tf) (mean)): 3040 ng·h/mL | half-life [2, 5]: 3.2 h | increase of Cmax relative to fasted state ([2]; non fat diet): 29% | increase of mean AUCs relative to fasted state ([2]; non fat diet): about 100% | CL/F (mean) ([2]; single oral dose 600 mg, fasted, balanced data): 407 L/h | CL/F (mean) ([2]; single oral dose 600 mg, fed (high fat diet), balanced data): 144.0 L/h | CL/F (mean) ([2]; single oral dose 600 mg, fed (non fat diet), balanced data): 243 L/h | rate of absorption in the fed state (vs fasted) ([2]; single oral dose 600 mg, fed state): more slowly
Compound: CC(C)(C)NC(=O)N[C@H](C(=O)N1C[C@H]2[C@@H]([C@H]1C(=O)NC(CC1CCC1)C(=O)C(N)=O)C2(C)C)C(C)(C)C (mixture of isomers) [SCH 503034]
